The source of these data is the NIST ThermoML archive (doi:10.1016/j.fluid.2015.12.026).

SMILES strings stand for the structures. Numbers after ± are expanded uncertainties.

This data set is described as follows: wn = mass fraction of the nth substance listed. The note with it: 101.3 kPa, Liquid, Vibrating tube method.

As a reminder, the mass density is mass per unit of volume. In the case of `O=C(O)CCCCC(=O)O` [1,6-hexanedioic acid] + OCCOCCO, the mass density runs as follows: (298.15 K, w1 = 0.0878) 1171.8 ± 0.5 kg/m3; (313.15 K, w1 = 0.1087) 1175.7 ± 0.6 kg/m3; (333.15 K, w1 = 0.1472) 1188.2 ± 0.7 kg/m3.

`NC(N)=O` [urea] + OCCOCCO: the mass density reads like this: (298.15 K, w1 = 0.2315) 1160.9 ± 1.1 kg/m3; (313.15 K, w1 = 0.2807) 1174.2 ± 1.3 kg/m3; (333.15 K, w1 = 0.3526) 1184.5 ± 1.7 kg/m3.
